Assay results published in ChEMBL document CHEMBL3137667, “[Drug-induced liver injury; fourteenth updated edition of the bibliographic database of liver injuries and related drugs]” (Gastroenterol Clin Biol, 2004).

Legend:
[1] = human
[2] = human; remark: listed apart in the source
[3] = human; remark: listed apart in the source
[4] = human; remark: listed apart in the source
[5] = human; remark: listed apart in the source
[6] = human, serum
[7] = Highest frequency of moderate liver toxicity observed during clinical trials, expressed as a percentage. [column '% BIOL' in source]; settings: human
[8] = human; remark: listed apart in the source
[9] = human, serum, 4383 h
[10] = human; remark: listed apart in the source
[11] = human; remark: listed apart in the source
[12] = human; remark: listed apart in the source
[13] = Highest frequency of acute liver toxicity observed during clinical trials, expressed as a percentage. [column '% AIGUE' in source]; settings: human
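For Hepatotoxicity (association with vascular disease) in this document: count of indexed literature references reporting vascular liver injury in humans, e.g. peliosis hepatitis, hepatic veno-occlusive disease or Budd-Chiari syndrome.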
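For Hepatotoxicity (benign tumour) in this document: value is a count of indexed literature references citing a benign tumour confirmed by histopathology.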
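For Hepatotoxicity (choleostasis) in this document: human cholestatic liver injury, shown by histopathology or by peak ALT or AST elevation over alkaline phosphatase ratio below 2, value counts indexed literature reports.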
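For Hepatotoxicity (chronic liver disease) in this document: chronic liver injury confirmed by histopathology or persistently raised serum aminotransferase activity beyond 6 months, value given as the count of indexed literature references.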
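For Hepatotoxicity (cirrhosis) in this document: value is a count of indexed literature references reporting cirrhosis confirmed by histopathology.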
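For Hepatotoxicity (cytolytic) in this document: human cytolytic liver injury, shown by histopathology or by a ratio above 5 of peak ALT or AST elevation to alkaline phosphatase elevation, value counts indexed references.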
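For Hepatotoxicity (granulomatous hepatitis) in this document: value is a count of indexed literature references reporting granulomatous liver disease confirmed by histopathology.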
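For Hepatotoxicity (malignant tumour) in this document: malignant tumour confirmed by histopathology, value gives the count of indexed literature references reporting it.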
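For Hepatotoxicity (severe hepatitis) in this document: human clinical data: severe hepatitis, meaning potentially life-threatening liver failure or clinically observed cases, the value counts how many indexed literature references report it.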
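For Hepatotoxicity (steatosis) in this document: steatosis confirmed by histopathology, value is the count of indexed references.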

| SMILES | Hepatotoxicity (severe hepatitis) ([1]; Liver) | Hepatotoxicity (benign tumour) [2] | Hepatotoxicity (association with vascular disease) [3] | Hepatotoxicity (cytolytic) ([4]; Liver) | Hepatotoxicity (choleostasis) ([5]; Liver) | Hepatotoxicity (moderate) [6] | Hepatotoxicity (moderate) ([7]; Liver) | Hepatotoxicity (malignant tumour) [8] | Hepatotoxicity (chronic liver disease) [9] | Hepatotoxicity (cirrhosis) [10] | Hepatotoxicity (granulomatous hepatitis) ([11]; Liver) | Hepatotoxicity (steatosis) [12] | Hepatotoxicity (acute) ([13]; Liver) | Hepatotoxicity (severe hepatitis) [1] | Hepatotoxicity (cytolytic) [4] | Hepatotoxicity (choleostasis) [5] | Hepatotoxicity (moderate) [7] | Hepatotoxicity (granulomatous hepatitis) [11] | Hepatotoxicity (acute) [13] |
| --- | --- | --- | --- | --- | --- | --- | --- | --- | --- | --- | --- | --- | --- | --- | --- | --- | --- | --- | --- |
| CC(C)(C)NCC(O)c1ccc(O)c(CO)c1 (stereo not given) [ALBUTEROL] | 0 | 0 | 0 | 0 | 0 | 0 | 0% | 0 | 0 | 0 | 0 | 0 | 4% |  |  |  |  |  |  |
| CCn1nc(C(=O)O)c(=O)c2cc3c(cc21)OCO3 [CINOXACIN] |  | 0 | 0 |  |  | 3 |  | 0 | 0 | 0 |  | 0 |  | 0 | 0 | 0 | 1% | 0 | 0% |
| O=c1oc2ccccc2c(O)c1Cc1c(O)c2ccccc2oc1=O [DICUMAROL] |  | 0 | 0 |  |  | 3 |  | 0 | 0 | 0 |  | 0 |  | 0 | 0 | 0 | 0% | 0 |  |
| CC(C)(C(=O)O)c1ccc(C(O)CCCN2CCC(C(O)(c3ccccc3)c3ccccc3)CC2)cc1 (stereo not given) [FEXOFENADINE] | 0 | 0 | 0 | 0 | 0 | 1 | 1.8% | 0 | 0 | 0 | 0 | 0 |  |  |  |  |  |  |  |
| CO[C@@]1(NC(=O)CSC(F)F)C(=O)N2C(C(=O)O)=C(CSc3nnnn3CCO)CO[C@@H]21 [FLOMOXEF] |  | 0 | 0 |  |  | 55 |  | 0 | 0 | 0 |  | 0 |  | 0 | 0 | 0 | 33.3% | 0 | 0% |
| C#C[C@]1(O)CC[C@H]2[C@@H]3CCC4=CC(=O)CC[C@@H]4[C@H]3CC[C@@]21CC [LEVONORGESTREL] | 0 | 0 | 0 | 0 | 0 | 1 | 0.4% | 0 | 0 | 0 | 0 | 0 |  |  |  |  |  |  |  |
| CC(=O)NC[C@H]1CN(c2ccc(N3CCOCC3)c(F)c2)C(=O)O1 [LINEZOLID] |  | 0 | 0 |  |  | 1 |  | 0 | 0 | 0 |  | 0 |  | 0 | 0 | 0 | 1% | 0 |  |
| C#CC(C)(O)CC (stereo not given) [MEPARFYNOL] |  | 0 | 0 |  |  | 0 |  | 0 | 0 | 0 |  | 0 |  | 0 | 0 | 1 | 0% | 0 |  |
| CC1CS(=O)(=O)CCN1/N=C/c1ccc([N+](=O)[O-])o1 (stereo not given) [NIFURTIMOX] | 0 | 0 | 0 | 0 | 0 | 0 | 0% | 0 | 0 | 0 | 0 | 0 |  |  |  |  |  |  |  |
| Oc1c(Cl)c(Cl)c(Cl)c(Cl)c1Cl [PENTACHLOROPHENOL] |  | 0 | 0 |  |  | 0 |  | 0 | 1 | 0 |  | 1 |  | 0 | 0 | 0 | 0% | 0 |  |
| CC(C)NCC(O)COc1cccc2[nH]ccc12 (stereo not given) [PINDOLOL] |  | 0 | 0 |  |  | 1 |  | 0 | 0 | 0 |  | 0 |  | 0 | 0 | 0 | 7% | 0 | 0% |
| Nc1ccc(S(=O)(=O)Nc2ccccn2)cc1 [SULFAPYRIDINE] | 0 | 0 | 0 |  |  | 0 | 0% | 0 | 0 | 0 |  | 0 |  |  | 0 | 0 |  | 0 |  |
| Oc1ncc(N(CCCl)CCCl)c(O)n1 [URACIL MUSTARD] | 0 | 0 | 0 | 1 | 0 | 0 | 0% | 0 | 1 | 0 | 0 | 0 |  |  |  |  |  |  |  |
